Where a SMILES comes first, the peptide text is derived from it. The star is where a group is joined. Cbz = O=C(OCc1ccccc1)*; CH2F = FC*
Key:
Type in all cases: in vivo, mouse
[1] = test system: retinal ganglion cells (RGCs); assay: Brn3b immunohistochemistry (viable RGCs) after ON injury; details: RIP3−/− mice; seven days after ON injury
Description: Two mouse models of RGC death were utilized: optic nerve (ON) injury and N-methyl-D-aspartate (NMDA) retinal excitotoxicity. ON injury leads to RGC death as a result of primary damage to the axons, with its ensuing disruption of retrograde axonal transport (Libby et al., (2005) PLOS GENET 1:17-26) and is used as an RGC death model. In the ON injury model, mice were anesthetized and subjected to severe crush injury at 1-2 mm distance from the eyeball for 15 seconds using cross-action forceps taking special care not to interfere with the blood supply (Levkovitch-Verbin, (2004) EYE 18:1066-1074). Injured mice were randomly divided into 4 groups for treatment: vehicle group (0.5% DMSO and 0.8% cyclodextrin in PBS, n=6), ZVAD group (300 n=6), Nec-1 group (4 mM, n=6), and ZVAD plus Nec-1 group (n=6). Soon after injury, each group received an intravitreal injection (2 μl) with the respective compounds. In the NMDA retinal excitotoxicity model, NMDA (2 μl of a 0.1M stock; Sigma-Aldrich) was injected intravitreously in combination with ZVAD, Nec-1, or ZVAD plus Nec-1 and mice were separated into the aforementioned 4 groups. […]

[2] = test system: retinal ganglion cells (RGCs); assay: IPL thickness and GCL with IPL thickness after ON injury (immunohistochemistry, SD-OCT); details: RIP3−/− mice; one week after ON injury
Experimental: An anti-TNF-α neutralizing antibody (0.1 mg/ml) or a control antibody was injected into the vitreous of mice that underwent ON injury. One week following injection, the number of RGCs were measured. In addition, inner plexiform layer (IPL) thickness (a location of RGC axons) was also assessed. Specifically, eyes were enucleated and RGC loss was quantified from histological sections of mouse retina. Only transverse sections involving the optic disc were used for analysis and the fields corresponding to approximately 400 μm of both sides of retina extending from the ON head (2 points/section×3 sections per eye, n=6) were examined with an optical microscope (×40 objectives). IPL thickness was measured with OpenLab software (Open Lab, Florence, Italy) (2 points/section×3 sections per eye, n=6). The ratio of IPL thickness was calculated as a percentage of IPL thickness in the normal mouse eyes (n=6).
Inner plexiform layer (IPL) thickness and ganglion cell layer (GCL) with IPL thickness (location of RGC cell bodies and axons) were measured using immunohistochemistry and a Spectral Domain Optical Coherence Tomography (SD-OCT) system (Bioptigen Inc., Durham, N.C.). […] The thickness of GCL+IPL was assessed at 500 μm, 400 μm, 300 μm distance from the ON head (nasally and temporally) as well as at 200 μm, 400 μm above and below the ON head.

[3] = test system: retinal ganglion cells (RGCs); assay: Transmission electron microscopy (TEM) quantification of apoptotic and necrotic RGC death after ON injury
Experimental: In addition, the morphology of RGC death was assessed by transmission electron microscopy (TEM) as previously described (Trichonas et al., (2010) PROC NATL ACAD SCI USA)). Specifically, the eyes were enucleated, and the posterior segments were fixed in 2.5% glutaraldehyde and 2% paraformaldehyde in 0.1 M cacodylate buffer with 0.08 M CaCl2 at 4° C. The eyes were post-fixed for 1.5 hours in 2% aqueous OsO4, dehydrated in ethanol and water, and embedded in EPON. Ultrathin sections were cut from blocks and stained with saturated, aqueous uranyl acetate and Sato's lead stain. […] More than 50 RGCs per eye were photographed and subjected to quantification of cell death in a masked fashion. RGCs showing cellular shrinkage and nuclear condensation were defined as apoptotic cells, and RGCs associated with cellular and organelle swelling and discontinuities in nuclear and plasma membrane were defined as necrotic cells. Electron dense granular materials were labeled simply as end-stage unclassified cell death. Autophagosome was defined as a double- or multi-membraned structure containing cytoplasmic material and/or organelles, and autolysosome was defined as cytoplasmic vesicle containing electron dense degraded material, as previously described (Eskelinen, 2008).
RGC death was categorized into apoptosis, necrosis and unclassified end-stage of death, as previously described (Trichonas et al., (2010) PROC NATL ACAD SCI USA). […] Co-administration of ZVAD and Nec-1 led to a substantial decrease of both apoptotic and necrotic RGC death (% apoptotic cells: 4.2±5.1%, necrotic cells: 9.8±6.6%, unclassified: 1.8±1.8%, P<0.01; FIGS. 4C and 4D).
To identify the RGC death mode seen after ON injury transmission electron microscopy (TEM) studies was performed as previously described. RGCs that were unable to be classified were defined as end-stage cell death/unclassified. […] RGCs contained tubular sacs of rough endoplasmic reticulum (rER) surrounded by large numbers of ribosomes (Nissl bodies). Mitochondria were identified as round or oval double-membrane structures with characteristic cristae. In addition, the cytoplasm contained elements of Golgi apparatus (GA), free ribosomes and microtubules sectioned at various angles. A large round nucleus, surrounded by a double-layered nuclear membrane, contained homogeneously dispersed karyoplasm (chromatin material) and one or two electron dense nucleoli (FIG. 8A) (Saggu et al., (2010) BMC NEUROSCI 11:97)). After ON injury, RGC death through apoptosis was predominant.

[4] = one day after ON injury, mean±SD

Q: How did the “number of Brn3b positive cells” value [1] turn out when `COC(=O)CC(NC(=O)C(C)NC(=O)C(NC(=O)OCc1ccccc1)C(C)C)C(=O)CF` (stereo not drawn) [Z-VAD, Benzyloxycarbonyl-Val-Ala-Asp(OMe)-fluoromethylketone] (Cbz-Val-Ala-Asp(OMe)-CH2F; configuration not given here) was run?
A: further enhanced

Q: And the IPL thickness [2]?
A: preservation of IPL thickness

Q: And the “mode of RGC death, apoptotic versus necrotic (TEM)” value ([3]; after ON injury)?
A: blocked apoptotic cell death and sensitized cells to necrotic cell death

Q: And the “apoptotic cells (RGC death, TEM)” value [3, 4]?
A: 5.6±3.4%

Q: What about the “necrotic cells (RGC death, TEM)” value [3, 4] of the same molecule?
A: 30.7±4.9%

Q: What about the “unclassified end-stage of death (TEM)” value [3, 4] of the same molecule?
A: 3.4±2.3%

From US10617735B2, “Methods and compositions for preserving retinal ganglion cells” (Massachusetts Eye and Ear Infirmary, priority 2010, dated 2020)
